Molecular target: T1, α-2 adrenoreceptor (Homo sapiens, UniProt P08913)
T1 construct: purchased Eurofins/DiscoverX SafetyScan47 panel
T1 sequence (P08913 1-465): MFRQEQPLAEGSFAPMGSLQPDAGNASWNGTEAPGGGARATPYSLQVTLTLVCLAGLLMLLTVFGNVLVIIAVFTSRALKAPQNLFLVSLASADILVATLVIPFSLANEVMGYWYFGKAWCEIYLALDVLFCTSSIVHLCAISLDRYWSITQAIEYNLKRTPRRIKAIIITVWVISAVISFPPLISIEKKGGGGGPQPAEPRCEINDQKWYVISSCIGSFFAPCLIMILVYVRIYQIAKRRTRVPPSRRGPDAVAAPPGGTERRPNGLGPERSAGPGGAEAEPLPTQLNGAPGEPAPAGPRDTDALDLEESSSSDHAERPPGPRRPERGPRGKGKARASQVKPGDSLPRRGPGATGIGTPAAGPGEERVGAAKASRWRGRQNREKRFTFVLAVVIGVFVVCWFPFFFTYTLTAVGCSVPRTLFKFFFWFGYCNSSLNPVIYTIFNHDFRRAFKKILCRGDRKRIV
Assay: Eurofins/DiscoverX SafetyScan47 panel, α-2 adrenoreceptor agonist activity
Assay type: cell-based
Details: compared to UK 14304 control; between 3 nM and 6.7 µM
Source text: Given the associations between increased histidine betaine and improved health in the dolphin model, it was hypothesized that histidine betaine has direct therapeutic activities. To test this hypothesis, the Eurofins/DiscoverX SafetyScan47 panel was used to test histidine betaine at 10 concentrations for agonist and antagonist activities across 76 assays and 47 genes and targets that are relevant to compound safety and mechanisms of action, including G-protein coupled receptors, kinases, transporters, ion channels, nuclear receptors, and non-kinase enzymes. Detailed methods used for these assays and assay readouts are available from Eurofins/DiscoverX.
Of 47 pharmacological targets tested for activity with histidine betaine, the following had partial activities, achieving at least 15% that of internal positive controls between 3 nM and 6.7 µM: α-2 adrenoreceptor agonist (maximum activity = 27% compared to UK 14304 control), and cyclooxygenase-1 (COX1) inhibitor (maximum activity = 23% compared to indomethacin control) (FIG. 4).

**Q.** How did the “maximum activity, α-2 adrenoreceptor agonist” value turn out when `C[N+](C)(C)C(Cc1cnc[nH]1)C(=O)[O-]` (stereo not shown) [histidine betaine] was run?
**A.** Its value is 27%.
